Columns and labels:
thymus weight = test: Glucocorticoid/anti-glucocorticoid activity in vivo (changes in thymus weight)
[1] = target: T1, mineralocorticoid receptor (MR) (Homo sapiens, UniProt P08235); test: Binding to the mineralocorticoid receptor in vitro
T1 sequence (P08235 1-984): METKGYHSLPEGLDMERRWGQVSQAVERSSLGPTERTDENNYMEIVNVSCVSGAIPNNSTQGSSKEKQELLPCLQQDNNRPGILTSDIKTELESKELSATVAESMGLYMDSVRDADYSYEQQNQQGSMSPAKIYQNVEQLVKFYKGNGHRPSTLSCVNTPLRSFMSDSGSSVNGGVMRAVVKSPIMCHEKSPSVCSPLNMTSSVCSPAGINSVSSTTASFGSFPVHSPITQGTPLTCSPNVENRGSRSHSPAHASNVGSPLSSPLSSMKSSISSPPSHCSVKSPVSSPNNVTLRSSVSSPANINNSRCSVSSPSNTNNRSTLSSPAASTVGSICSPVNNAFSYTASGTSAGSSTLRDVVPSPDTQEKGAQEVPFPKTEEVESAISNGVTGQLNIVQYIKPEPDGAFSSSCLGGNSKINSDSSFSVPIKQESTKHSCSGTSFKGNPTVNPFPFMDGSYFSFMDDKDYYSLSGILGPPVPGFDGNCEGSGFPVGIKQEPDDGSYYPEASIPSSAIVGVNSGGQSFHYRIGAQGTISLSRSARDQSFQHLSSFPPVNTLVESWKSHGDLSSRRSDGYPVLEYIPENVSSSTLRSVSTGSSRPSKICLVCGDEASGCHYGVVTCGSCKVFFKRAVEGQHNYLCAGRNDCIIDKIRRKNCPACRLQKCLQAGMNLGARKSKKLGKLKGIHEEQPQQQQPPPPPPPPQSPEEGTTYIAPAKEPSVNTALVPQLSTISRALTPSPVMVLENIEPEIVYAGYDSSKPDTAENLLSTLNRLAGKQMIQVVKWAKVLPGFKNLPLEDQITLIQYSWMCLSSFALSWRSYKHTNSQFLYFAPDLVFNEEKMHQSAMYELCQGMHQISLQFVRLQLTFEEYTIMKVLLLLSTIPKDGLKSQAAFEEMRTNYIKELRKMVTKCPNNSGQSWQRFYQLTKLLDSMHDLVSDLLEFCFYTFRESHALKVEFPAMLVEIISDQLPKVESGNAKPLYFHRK

[2] = test system: prostate weight and seminal vesicle of orchidectomized rats; test: Androgenic/anti-androgenic activity in vivo in orchidectomized rats (prostate weight, seminal vesicle); design: species or system rat
From the text: The absence of androgenic as well as anti-androgenic activity in vivo was confirmed by tests performed with orchidectomized rats (change in prostate weight and in the seminal vesicle).

rat mammary epithelium = test: MIB-5 immunohistochemistry, proliferation of the mammary epithelium; type: in vivo; details: FIG. 2
Protocol: In order to determine the effects of test progestins according to the present invention, in particular compound ((+)-1), in mammary gland differentiation and proliferation, premature female rats (Wistar Han, SPF) are ovariectomized at the age of 21 days, 4 to 6 days before treatment start. The animals are treated for 6 days with standard estrogen (estrone (E1), 70 μg/kg) and the test progestin ((+)-1) (application volume: 0.1 ml/50 g body weight; vehicle: benzylbenzoate/castor oil (1+4 v/v); subcutaneous). Control groups are e.g.: vehicle, estrone without progestin, estradiol together with a known progestin, e.g. R5020 (promegestone). After the 6-day treatment the animals are killed with carbon dioxide.
For the whole mount staining, animals are shaved in the left abdominal inguinal mammary region, which is cut from the body together with the skin. For the histological/immunohistochemical analyses the right abdominal inguinal mammary gland is cut from the body together with the connective-tissue adhered thereto and fixed in 3.7% formalin in PBS (phosphate buffer saline; without Ca^2+/Mg^2+).
For a more detailed evaluation of the proliferation of the mammary epithelium, cells are stained with the proliferation marker MIB-5 as follows (cf. FIG. 2): Mammary glands are fixed in 4% formaldehyde/PBS for 24 h and embedded in paraffm. 4 μm sections are spread on slides, deparaffinized, treated with microwaves for 10 min. in citrate buffer pH 6.0 and rinsed with PBS. Slides are then blocked with 3% H2O2/methanol for 15 min., Blockingkit (Vektor, no. SP-2001) for 10 min. and rat serum (Sigma, no. S-7648) diluted 1:2 in PBS for 30 min to reduce nonspecific staining and rinsed in PBS. Slides are incubated for 1 hour with monoclonal antibody MIB-5 (Dianova, no. Dia-5055), which is specific for the rat Ki-67 antigen (1:200 diluted in PBS/0.2% BSA). […]
In order to characterize a test compound, the percentage of MIB-5 stained mammary epithelium cells is determined. […]

rabbit endometrium = test: Endometrial transformation in rabbit (Clauberg test, McPhail index); type: in vivo
Protocol: The test is performed in juvenile female rabbits (New Zealand white, 30 to 35 days old; obtained from Schriever, Germany). From days 1 to 4, all rabbits are primed with […] (s.c., 0.5 ml/kg/day) in order to induce proliferation of the endometrium. From days 7 to 10, the test compound is applied orally (p.o., 0.5 ml/kg/day) at doses of 0.001, 0.01 and 0.1 mg/kg/day. A group which receives only vehicle after estradiol priming serves as a negative control. A second group which receives only progesterone in order to induce endometrial differentiation after estradiol priming is used as a positive control. In order to study the progestagenic activity of ((+)-1), which is the most preferred compound according to the present invention, one treatment group-receives only the compound ((+)-1) after estradiol priming.
Autopsy is performed on […]. As a parameter for progestagenic activity, the McPhail index (i.e., the degree of differentiation) is determined by means of light microscopy (scores: 1 to 4; 1=no glandular differentiation, 4=maximal differentiation).

O=C1OCc2cc(NC(=O)C(O)(CC3(c4cc(C(F)(F)F)ccc4F)CC3)C(F)(F)F)ccc21 (single isomer, unassigned; (+)) [((+)-1), (+)-5-{2-hydroxy-3-[1-(2-fluoro-5-trifluoromethylphenyl)-cyclopropyl]-2-trifluoromethyl-propionylamino}-phthalide]
Glucocorticoid and anti-glucocorticoid activity in vivo (thymus weight): does not seem to exhibit any glucocorticoid or any anti-glucocorticoid activity in vivo | Affinity for the mineralocorticoid receptor (MR) [1]: negligible affinity | Androgenic and anti-androgenic activity in vivo [2]: no androgenic as well as no anti-androgenic activity in vivo | MIB-5 positive cells (rat mammary epithelium; 1 mg/kg/d): ~12% | MIB-5 positive cells, dose dependence in words (rat mammary epithelium; increasing concentrations): dose-dependent decrease of MIB-5 positive cells | Potency upon subcutaneous versus oral application, in words (rabbit endometrium; Clauberg test, rabbit): identical potency | Threshold Value (endometrial transformation) (rabbit endometrium; oral (p.o.)): 0.001 to 0.01 mg/kg

Reference: patent US7388006B2, “Non-steroidal progesting” (Bayer Schering Pharma AG, priority 2002, dated 2008)
